Measured values reported in PubChem BioAssay (NCI).
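Interpolation was linear, between the two tested concentrations surrounding the appropriate level; five concentrations were tested over 48 hours in 96-well plates. GI50 is the concentration that inhibits growth by half. Definition used: TGI = concentration required for complete inhibition of growth.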

Key:
Assay in all cases: inhibition of tumour cell growth, NCI panel, 48 h
[1] = test system: SK-MEL-28 melanoma
[2] = test system: SF-539 CNS
[3] = test system: MCF7 breast
[4] = test system: SR leukemia
[5] = test system: MALME-3M melanoma
[6] = test system: HCC-2998 colon
[7] = test system: MOLT-4 leukemia
[8] = test system: UACC-62 melanoma
[9] = test system: SN12C renal
[10] = test system: EKVX NSCLC
[11] = test system: OVCAR-5 ovarian
[12] = test system: NCI-H23 lung
[13] = test system: MDA-MB-231 breast
[14] = test system: RPMI-8226 leukemia
[15] = test system: BT-549 breast
[16] = test system: DU-145 prostate
[17] = test system: NCI-H522 lung
[18] = test system: ACHN renal
[19] = test system: HL-60(TB) leukemia
[20] = test system: SF-295 CNS
[21] = test system: PC-3 prostate
[22] = test system: SNB-19 CNS
[23] = test system: OVCAR-4 ovarian
[24] = test system: HS 578T breast
[25] = test system: SK-MEL-5 melanoma
[26] = test system: NCI-H226 lung
[27] = test system: UO-31 renal
[28] = test system: COLO 205 colon
[29] = test system: HCT-116 colon

In the case of `CN1CCN(c2nc(NCCCCNc3ccnc4cc(Cl)ccc34)c3ccccc3n2)CC1`, the TGI [1] is reported as 3.57 µM, the GI50 [2] is reported as 1620 nM and the TGI [2] is reported as 3.25 µM. For the same compound, the GI50 [3] was 4.3 µM, the TGI [3] was 19.1 µM and the GI50 [4] was 2290 nM. For the same compound, the TGI [4] was 6.27 µM, the GI50 [5] was 1930 nM and the TGI [5] was 3.61 µM. It also gave a GI50 [6] of 2590 nM, a TGI [6] of 7.12 µM and a GI50 [7] of 3.08 µM. The TGI [7] was 20 µM, the GI50 [8] was 1960 nM and the TGI [8] was 3.9 µM. It also gave a GI50 [9] of 4.73 µM, a TGI [9] of 20 µM and a GI50 [10] of 16.4 µM. The TGI [10] was 40.7 µM, the GI50 [11] was 2980 nM and the TGI [11] was 15.8 µM. It also gave a GI50 [12] of 11.7 µM, a TGI [12] of 29.7 µM and a GI50 [13] of 2140 nM. For the same compound, the TGI [13] was 5.93 µM, the GI50 [14] was 1800 nM and the TGI [14] was 5.43 µM. It also gave a GI50 [15] of 3.45 µM, a TGI [15] of 15 µM and a GI50 [16] of 7 µM. For the same compound, the TGI [16] was 21.7 µM, the GI50 [17] was 2820 nM and the TGI [17] was 9.32 µM. The GI50 [18] was 2520 nM, the TGI [18] was 7.32 µM and the GI50 [19] was 1870 nM. For the same compound, the TGI [19] was 4.23 µM, the GI50 [20] was 1840 nM and the TGI [20] was 3.73 µM. It also gave a GI50 [21] of 4.44 µM, a TGI [21] of 17.6 µM and a GI50 [22] of 4.28 µM. The TGI [22] was 20.8 µM, the GI50 [23] was 2140 nM and the TGI [23] was 6.99 µM. The GI50 [24] was 5.48 µM, the TGI [24] was 26 µM and the GI50 [25] was 1780 nM. It also gave a TGI [25] of 3.19 µM, a GI50 [26] of 20.7 µM and a TGI [26] of 45.8 µM. For the same compound, the GI50 [27] was 1650 nM, the TGI [27] was 3.54 µM and the GI50 [28] was 2100 nM. For the same compound, the TGI [28] was 5.46 µM, the GI50 [29] was 2580 nM and the TGI [29] was 11.7 µM.
